Test results taken from US8349896B2, “Aspirin-triggered lipid mediators” (The Brigham and Womens's Hospital, Inc., priority 2000, dated 2013).
pIC50: −log10 of the molar value. Where two headings read alike, the source gives them in different places. One block for each compound: values may come before it.

Assays:
[1] = test system: human PMN; assay: LTB4-stimulated PMN transendothelial migration; format: cell-based; conditions: for potency relative to the compounds derived from EPA: similar to results of FIGS. 9A (transmigration) and 9C (air pouch), no data shown; for pIC50: human PMN, FIG. 9A; for rank order of potency, inhibition of PMN migration: tested in parallel for direct comparison
Method: Human PMNs were freshly isolated from venous blood of healthy volunteers (that declined taking medication for 2 wk before donation; Brigham and Women's Hospital protocol no. 88-02642) by Ficoll gradient and enumerated. Human umbilical vein or microvascular ECs (HUVECs or HMVECs, respectively) were cultured for transendothelial migration (Reference 10), HMVEC monolayers (one, two, or three passages) were seeded (−2×10^5 cells/cm^2) on polycarbonate permeable supports precoated with 0.1% gelatin for incubations with NSAIDs and PUFA.

[2] = target: T1, recombinant human LTB4 receptor (Homo sapiens, UniProt Q15722); assay: [3H]LTB4 competition binding, HEK-293 cells stably expressing receptor; conditions: HEK293 cells
T1 construct: expressed in transfected cells
T1 sequence (Q15722 whole entry): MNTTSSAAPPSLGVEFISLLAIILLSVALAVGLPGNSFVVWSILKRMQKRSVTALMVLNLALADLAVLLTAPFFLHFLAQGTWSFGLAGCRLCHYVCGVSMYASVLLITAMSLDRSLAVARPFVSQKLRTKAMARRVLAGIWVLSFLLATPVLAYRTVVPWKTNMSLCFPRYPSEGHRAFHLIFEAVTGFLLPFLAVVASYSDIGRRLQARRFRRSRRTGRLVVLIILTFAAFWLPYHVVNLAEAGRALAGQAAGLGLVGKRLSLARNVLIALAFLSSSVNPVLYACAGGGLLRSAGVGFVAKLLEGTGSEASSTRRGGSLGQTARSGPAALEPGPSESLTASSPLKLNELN

[3] = test system: PMN infiltration into murine dorsal air pouches; assay: TNF-α induced leukocyte/PMN infiltration into murine dorsal air pouch; format: in vivo, FVB mice; conditions: 100 ng intravenously into tail; TNF-α 100 ng/pouch; lavage at 4 h
Method: Inflammatory exudates were initiated with intrapouch injection of TNF-α (R&D Systems) into 6 d dorsal air pouches with (Reference 16) 6-8-wk-old male FVB mice (fed standard rodent diet 5001 containing 0.26% n-3 fatty acids) followed by ASA (500 μg) at 3.5 h and 300 μg C20:5/pouch at 4 h. At 6 h, pouches were lavaged (3 ml saline), and exudate cells were enumerated and activated 94 μM A23187, 37° C., 20 min). Inhibition of TNF-α-stimulated (100 ng/pouch, FVB strain) PMN infiltration with intravenous tail injection of either 18 R-hydroxyeicosapentaenoic acid (HEPE), 5, 12, 18R-HEPE, or 15-epi-LXA, analogue was determined (Reference 16) with pouch lavages taken at 4 h.

[4] = target: T2, Recombinant Human COX-2 (Homo sapiens, UniProt P35354); assay: Conversion of PUFA to hydroxy compounds by recombinant COX-2 incubated with NSAID; format: biochemical; conditions: for 11R-HEPE, conversion of n-3 C20:5 / 15R-HEPE, conversion of n-3 C20:5 / 18R-HEPE, conversion of n-3 C20:5: Table 2, mean amount +/− SEM
T2 construct: host or cells: Sf9 insect cells, baculovirus; microsomal fractions
T2 sequence (P35354 18-604): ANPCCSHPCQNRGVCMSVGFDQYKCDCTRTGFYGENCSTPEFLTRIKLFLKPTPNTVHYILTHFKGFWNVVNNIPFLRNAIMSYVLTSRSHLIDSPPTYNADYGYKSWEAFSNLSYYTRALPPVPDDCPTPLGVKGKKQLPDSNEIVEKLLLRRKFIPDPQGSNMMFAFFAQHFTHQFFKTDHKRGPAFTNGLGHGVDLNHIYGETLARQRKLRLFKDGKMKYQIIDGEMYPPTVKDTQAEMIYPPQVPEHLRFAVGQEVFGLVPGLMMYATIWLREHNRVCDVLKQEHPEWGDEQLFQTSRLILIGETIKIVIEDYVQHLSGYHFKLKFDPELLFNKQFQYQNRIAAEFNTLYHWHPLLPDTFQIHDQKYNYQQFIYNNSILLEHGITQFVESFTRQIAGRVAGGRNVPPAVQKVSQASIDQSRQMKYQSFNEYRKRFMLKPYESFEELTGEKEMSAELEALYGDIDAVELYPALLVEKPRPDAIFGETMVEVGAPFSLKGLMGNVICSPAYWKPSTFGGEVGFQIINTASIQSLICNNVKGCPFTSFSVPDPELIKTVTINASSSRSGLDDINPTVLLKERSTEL
Method: Human recombinant COX-2 (a gift from Dr. R. A. Copeland, DuPont Merck, Wilmington, Del.) was overexpressed in […] (American Type Culture Collection) with microsomal fractions (˜8 μl) suspended in Tris (100 mM, pH 8.0) as in Reference 21. George, H. J., D. E. Van Dyk, R. A. Straney, J. M. Trzaskos, and R. A. Copeland. 1996. Expression purification and characterization of recombinant human inducible prostaglandin G/H synthase from baculovirus-infected insect cells. Protein Expres. Purif. 7:19-26. NSAIDs were incubated (i.e., ASA ˜1 mM) at 37° C. for 30 min before addition of PUFA (20 μM), and conversions were also monitored using 1-^14C-labeled C20:4 (See FIGS. 2A and 2B) or C20:5 (NEN Life Science Products) (See FIGS. 2C and 2D).

[5] = PUFA 20 μM, ASA ~1 mM or NS398 100 uM, mean ± SEM
[6] = PUFA 20 μM, ASA ~1 mM, mean ± SEM
[7] = Table 1, PUFA 20 μM, ASA ~1 mM or NS398 100 uM, mean ± SEM

Compound: 19-hydroxy-DHA
potency relative to the compounds derived from EPA [1]: potencies equivalent to those described above for the compounds derived from EPA

pIC50 ([1]; read-out: apparent IC50, inhibition of LTB4-stimulated PMN transendothelial migration): 7.30 to 8.30
pIC50 [2]: 6.30
Compound: CC[C@@H](O)/C=C/C=C\C[C@@H](O)/C=C/C=C/C=C\[C@@H](O)CCCC(=O)O [5,12,18R-triHEPE]
rank order of potency, inhibition of PMN migration [1]: 15-epi-LXA4 stable analogue >5,12,18R-tri-HEPE >18R-HEPE
inhibition of PMN infiltration into murine dorsal air pouches (in words) [3]: potent inhibitor of PMN infiltration

Compound: CC/C=C\C/C=C\C=C\C(O)C/C=C\C/C=C\C/C=C\CCC(=O)O (stereo not drawn) [13-hydroxy-DHA]
potency relative to the compounds derived from EPA [1]: potencies equivalent to those described above for the compounds derived from EPA

Compound: CC/C=C\C/C=C\CC(O)/C=C/C=C\C/C=C\C/C=C\CCC(=O)O (stereo not drawn) [14-hydroxy-DHA]
potency relative to the compounds derived from EPA [1]: potencies equivalent to those described above for the compounds derived from EPA

Compound: O=C(O)CCC[C@H](O)[C@H](O)/C=C/C=C/C=C\C=C\[C@H](O)COc1ccc(F)cc1 [15-epi-LXA4 stable analogue, 15(5)-16(para-fluoro)-phenoxy-LXA4]
rank order of potency, inhibition of PMN migration [1]: 15-epi-LXA4 stable analogue >5,12,18R-tri-HEPE >18R-HEPE
inhibition of PMN infiltration into murine dorsal air pouches (in words) [3]: potent inhibitor of PMN infiltration

Compound: CC/C=C\C=C\C(O)C/C=C\C/C=C\C/C=C\C/C=C\CCC(=O)O (stereo not drawn) [16-hydroxy-DHA]
potency relative to the compounds derived from EPA [1]: potencies equivalent to those described above for the compounds derived from EPA

Compound: CC/C=C\CC(O)/C=C/C=C\C/C=C\C/C=C\C/C=C\CCC(=O)O (stereo not drawn) [17-hydroxy-DHA]
potency relative to the compounds derived from EPA [1]: potencies equivalent to those described above for the compounds derived from EPA

Compound: CCC(O)/C=C/C=C\C/C=C\C/C=C\C/C=C\C/C=C\CCC(=O)O (stereo not drawn) [20-hydroxy-DHA]
potency relative to the compounds derived from EPA [1]: potencies equivalent to those described above for the compounds derived from EPA

Compound: CC(=O)Oc1ccccc1C(=O)O [ASA, aspirin]
increase in 18R-HEPE on ASA acetylation of COX-2 ([4]; C20:5): approximately twofold increase
reduction in 11R-HEPE on ASA acetylation of COX-2 ([4]; C20:5): > 85%
11R-HETE (ω-9) generated from C20:4 [4, 5]: 1.4 ± 1.6 ng/incubation
15R-HETE (ω-5) generated from C20:4 [4, 5]: 234.0 ± 112.5 ng/incubation
9-HODE (ω-9) generated from C18:2 [4, 6]: 25.2 ± 17.8 ng/incubation
13-HODE (ω-5) generated from C18:2 [4, 6]: 2.9 ± 0.6 ng/incubation
11R-HEPE (ω-9) generated from C20:5 [4, 7]: 5.4 ± 3.3 ng/incubation
15R-HEPE (ω-5) generated from C20:5 [4, 7]: 16.8 ± 5.8 ng/incubation
18R-HEPE (ω-2) generated from C20:5 [4, 7]: 16.2 ± 3.3 ng/incubation
11R-HEPE, conversion of n-3 C20:5 [4]: 5.5 ± 2.3 ng
15R-HEPE, conversion of n-3 C20:5 [4]: 8.0 ± 5.6 ng
18R-HEPE, conversion of n-3 C20:5 [4]: 12.2 ± 4.6 ng

11R-HEPE, conversion of n-3 C20:5 [4]: 6.7 ± 3.0 ng
15R-HEPE, conversion of n-3 C20:5 [4]: 4.6 ± 1.2 ng
18R-HEPE, conversion of n-3 C20:5 [4]: 5.5 ± 2.4 ng
reduction of levels of 15R- and 18R-HEPE versus absence of inhibitors ([4]; recombinant COX-2 and C20:5, concentrations as high as 2 mM, n=3): three to eight times
Compound: CC(=O)Nc1ccc(O)cc1 [Acetaminophen]

Compound: CC[C@@H](O)/C=C/C=C\C/C=C\C/C=C\C/C=C\CCCC(=O)O [Compound 18R-HEPE, 18R-hydroxyeicosapentaenoic acid]
pIC50 ([1]; read-out: IC50, inhibition of LTB4-stimulated PMN transendothelial migration): < 6.00
rank order of potency, inhibition of PMN migration [1]: 15-epi-LXA4 stable analogue >5,12,18R-tri-HEPE >18R-HEPE
competition with 3H-LTB4 (in words) [2]: did not
inhibition of PMN infiltration into murine dorsal air pouches (in words) [3]: some activity in vivo

pIC50 [2]: 6.30
Compound: CC/C=C\C/C=C\C[C@@H](O)/C=C/C=C/C=C\[C@@H](O)CCCC(=O)O [LTB5]
